Measurements reported in patent US20060287273A1, “Methods and reagents for inhibiting cell proliferation” (priority 2005, published 2006).

System: MDA-MB-435S cells
Experiment: TUNEL assay analyzed by FACS (apoptosis)
Type: cell-based, human
Settings: 48 hours post-transfection; staurosporine 1 uM; versus control siRNA
Description: To examine this possibility, we utilized the TUNEL assay, which measures the appearance of free DNA ends that are the result of DNA fragmentation that occurs in the latter stages of apoptosis. MDA-MB-435S cells in 6 well dishes were transfected with the corresponding siRNA or treated with 1 uM staurosporine. 48 hours post-transfection, any detached cells were combined with cells detached using trypsin and the cells were washed, fixed with paraformaldehyde, subjected to TUNEL assay, and analyzed by FACS. […] Cells to be assayed were trypsinized, washed twice with PBS, followed by fixation for 20 min. in 1.5% paraformaldehyde in PBS at 4° C. with gentle mixing. The cells were then washed twice with PBS, suspended in 70% ethanol at 4° C., and stored at −20° C. until assayed. When assayed, the cells were washed twice with PBS and then resuspended in 50 μl of Tunel assay buffer consisting of 100 mM potassium cacodylate (pH 7.2), 2 mM CoCl2, 0.2 mM dithiotheitol, 3.3 nM fluorescein-conjugated dUTP, 13 nM DATP and 11 units of terminal deoxynucleotidyl transferase for 90 minutes at 37° C. The cells were then washed twice with PBS and analyzed by FACS sorting.

In the case of `CN[C@@H]1C[C@H]2O[C@@](C)([C@@H]1OC)n1c3ccccc3c3c4c(c5c6ccccc6n2c5c31)C(=O)NC4` [Staurosporine], the “apoptosis, incorporation of fluorescein-labeled dUTP” value is reported as “most dramatic increase in apoptotic cells”.
